Assay results as given in patent publication EP4603105A1, “PHARMACEUTICAL COMPOSITION CONTAINING CYCLIC COMPOUND HAVING SELECTIVE KRAS INHIBITORY EFFECT AGAINST HRAS AND NRAS” (CHUGAI SEIYAKU KABUSHIKI KAISHA, priority 2022, dated 2024).
pIC50: −log10 of the molar value. Where a SMILES comes first, the peptide text is derived from it. Bridges are numbered along the chain shown (N, C = ends). [ ]: non-standard residue; d: D form. hPhe(3-Cl-4-CF3) = N[C@@H](CCc1ccc(C(F)(F)F)c(Cl)c1)C(=O)O; NPrPhe(4-CF3) = CCCN[C@@H](Cc1ccc(C(F)(F)F)cc1)C(=O)O; NMeGly(cPent) = CN[C@H](C(=O)O)C1CCCC1; Hyp = O=C(O)[C@@H]1C[C@@H](O)CN1; NMeD = CN[C@@H](CC(=O)O)C(=O)O; NMeL = CN[C@@H](CC(C)C)C(=O)O; NMeA = CN[C@@H](C)C(=O)O; Aze = O=C(O)[C@@H]1CCN1; Ac4c = NC1(C(=O)O)CCC1; Sar = CNCC(=O)O

Assays:
[1] = biological target: GDP-bound NRAS wild-type protein (Homo sapiens, UniProt P01111); assay: Binding to NRAS by surface plasmon resonance (SPR), KD and KD ratio to KRAS
Summary of the method: (§1)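 Compound binding is evaluated by SPR single-cycle kinetics, with concentrations added intermittently from low to high for 75 s each. Target surfaces carry GDP-loaded biotinylated Avi-RAS at about 100–300 RU, regenerated after each cycle; temperature 30°C. A 1:1 binding model gives KD.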

HRAS wild-type protein = HRAS wild-type protein (Homo sapiens, UniProt P01112); assay: Binding to HRAS by surface plasmon resonance (SPR), KD and KD ratio to KRAS
Summary of the method: as §1

[2] = system: human lung cancer strain NCI-H441; format: cell-based
Summary of the method: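 Proliferation was scored by […] measured after the reagent was added to cultures kept at 37°C in 5% carbon dioxide.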

[3] = ratio of the KD value with respect to GDP-bound NRAS wild-type protein to the KD value with respect to KRAS
[4] = ratio of the KD value with respect to HRAS wild-type protein to the KD value with respect to KRAS
[5] = ratio of KD for GDP-bound NRAS wild-type protein to KD for KRAS
[6] = ratio of KD for HRAS wild-type protein to KD for KRAS

Sequence of GDP-bound NRAS wild-type protein (P01111 whole entry): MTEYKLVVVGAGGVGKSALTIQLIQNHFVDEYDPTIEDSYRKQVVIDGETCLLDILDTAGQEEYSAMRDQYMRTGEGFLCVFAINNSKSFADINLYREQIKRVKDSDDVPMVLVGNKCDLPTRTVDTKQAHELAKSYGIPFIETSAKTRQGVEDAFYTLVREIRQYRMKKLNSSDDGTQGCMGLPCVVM
Sequence of HRAS wild-type protein (P01112 whole entry): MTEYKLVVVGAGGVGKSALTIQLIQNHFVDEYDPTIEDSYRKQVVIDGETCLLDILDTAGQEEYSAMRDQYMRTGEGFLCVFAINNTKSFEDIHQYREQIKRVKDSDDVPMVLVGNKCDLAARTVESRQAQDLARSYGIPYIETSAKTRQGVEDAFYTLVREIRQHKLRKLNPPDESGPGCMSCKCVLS

| SMILES | pIC50 [2] | NRAS /KRAS [1, 3] | HRAS /KRAS (HRAS wild-type protein; [4]) | NRAS /KRAS [1, 5] | HRAS /KRAS (HRAS wild-type protein; [6]) | further results |
| --- | --- | --- | --- | --- | --- | --- |
| CCCN1C(=O)[C@@H]2CCN2C(=O)[C@H](C)N(C)C(=O)[C@H]([C@@H](C)CC)NC(=O)[C@H](CC(C)C)N(C)C(=O)C[C@@H](C(=O)N(C)C)NC(=O)[C@H](C2CCCC2)N(C)C(=O)C2(CCC2)NC(=O)[C@@H]2CCCN2C(=O)[C@H](CCc2ccc(C(F)(F)F)c(Cl)c2)NC(=O)CN(C)C(=O)[C@@H]1Cc1ccc(C(F)(F)F)cc1 [PP0380] ([NMeL]I[NMeA][Aze][NPrPhe(4-CF3)][Sar][hPhe(3-Cl-4-CF3)]P[Ac4c][NMeGly(cPent)]D-NMe2; lactam N-11) | 7.79 |  |  | C (A compound having a KD ratio of 0.1 or more and less than 3 is denoted as C) | B (a compound having 3 or more and less than 10 is denoted as B) |  |
| CCO[C@@H]1C[C@H]2C(=O)NC3(CC(C)(C)C3)C(=O)N(C)[C@@H](C3CCCC3)C(=O)N(C)[C@H](C(=O)N(C)C)CC(=O)N(C)[C@H]3CCCC/C=C/c4ccc(cc4)C[C@@H](C(=O)N(C)CC(=O)N[C@@H](CCc4cc(F)c(C(F)(F)F)c(F)c4)C(=O)N2C1)N1CC/C=C\C[C@@H](C1=O)N(C)C(=O)CN(C)C(=O)[C@H]([C@@H](C)CC)NC3=O [PP1831] | 8.52 |  |  |  |  | NRAS /KRAS ([1]; ratio of KD value for GDP-bound NRAS wild-type protein to KD value for KRAS (SPR)): A (a compound having 10 or more and less than 20 is denoted as A); HRAS /KRAS (HRAS wild-type protein; ratio of KD value for HRAS wild-type protein to KD value for KRAS (SPR)): A (a compound having 10 or more and less than 20 is denoted as A) |
| CCCN1C(=O)CN(C)C(=O)CNC(=O)[C@H]([C@@H](C)CC)NC(=O)[C@H](CC(C)C)N(C)C(=O)C[C@@H](C(=O)N(C)C)N(C)C(=O)[C@H](C2CCCC2)N(C)C(=O)C2(CCC2)NC(=O)[C@@H]2C[C@@H](OCC)CN2C(=O)[C@H](CCc2ccc(C(F)(F)F)c(Cl)c2)NC(=O)CN(C)C(=O)[C@@H]1Cc1ccc(C(F)(F)F)cc1 [PP0422] ([NMeL]IG[Sar][NPrPhe(4-CF3)][Sar][hPhe(3-Cl-4-CF3)][Hyp](Et)[Ac4c][NMeGly(cPent)][NMeD]-NMe2; lactam N-11) | 8.80 | B (a compound having 3 or more and less than 10 is denoted as B) | B (a compound having 3 or more and less than 10 is denoted as B) |  |  |  |
| CCO[C@@H]1C[C@H]2C(=O)NC3(CCC3)C(=O)N(C)[C@@H](C3CCCC3)C(=O)N(C)[C@H](C(=O)N(CC)CC)CC(=O)N(C)[C@@H](CC)C(=O)N[C@@H]([C@@H](C)CC)C(=O)N(C)CC(=O)N(C)[C@H]3C/C=C\CCN(C3=O)[C@@H](Cc3ccc(C(F)(F)F)cc3)C(=O)N(C)CC(=O)N[C@@H](CCc3cc(F)c(C(F)(F)F)c(F)c3)C(=O)N2C1 [PP1305] | 7.89 |  |  |  |  | NRAS /KRAS ([1]; ratio of KD with respect to GDP-bound NRAS wild-type protein to KD with respect to KRAS): AA (a compound having 20 or more is denoted as AA); HRAS /KRAS (HRAS wild-type protein; ratio of KD with respect to HRAS wild-type protein to KD with respect to KRAS): A (a compound having 10 or more and less than 20 is denoted as A) |

Now from value to compound, other results behind:

| pIC50 [2] | SMILES | NRAS /KRAS [1, 3] | HRAS /KRAS (HRAS wild-type protein; [4]) | NRAS /KRAS [1, 5] | HRAS /KRAS (HRAS wild-type protein; [6]) | further results |
| --- | --- | --- | --- | --- | --- | --- |
| 7.75 | CCCN(C)C(=O)[C@@H]1CC(=O)N(C)[C@@H](C(C)C)C(=O)N[C@@H]([C@@H](C)CC)C(=O)N(C)CC(=O)N(C)[C@H]2C/C=C\CCN(C2=O)[C@@H](Cc2ccc(C(F)(F)F)cc2)C(=O)N(C)CC(=O)N[C@@H](CCc2ccc(C(F)(F)F)c(OC)c2)C(=O)N2C[C@@H](C)C[C@H]2C(=O)NC2(CCC2)C(=O)N(C)[C@@H](C2CCCC2)C(=O)N1C [PP2067] | AA (a compound having 20 or more is denoted as AA) | A (a compound having 10 or more and less than 20 is denoted as A) |  |  |  |
| 7.49 | CCC[C@H]1C(=O)N[C@@H]([C@@H](C)CC)C(=O)N(C2CC2)CC(=O)N(C)[C@H]2C/C=C\CCN(C2=O)[C@@H](Cc2ccc(C(F)(F)F)cc2)C(=O)N(C)CC(=O)N[C@@H](CCc2cc(F)c(C(F)(F)F)c(F)c2)C(=O)N2C[C@H](OCC)C[C@H]2C(=O)N(C)C2(CCC2)C(=O)N(C)[C@@H](C2CCCC2)C(=O)N(C)[C@H](C(=O)N2CCCC2)CC(=O)N1C [PP3112] |  |  | A (a compound having 10 or more and less than 20 is denoted as A) | B (a compound having 3 or more and less than 10 is denoted as B) |  |
